The numbers were not newly measured in US9662414B2, “Dressing system” (Edixomed Limited, priority 2013, dated 2017), which cites them from elsewhere.

For this data set the following is noted: healthy 70 kg-adult.
`COC(=O)[C@H]1[C@@H](OC(=O)c2ccccc2)C[C@@H]2CC[C@H]1N2C` [cocaine]: the “generally accepted safe dosage for topical anaesthesia” value (“generally accepted safe dosage” below) was 200 mg.

As to `CCN(CC)CC(=O)Nc1c(C)cccc1C` [lidocaine], the “generally accepted safe dosage” value is reported as 750 mg. `CCCCNc1ccc(C(=O)OCCN(C)C)cc1` [tetracaine]: the “generally accepted safe dosage” value was 50 mg.
